Measured values published in the NIST ThermoML archive (doi:10.1016/j.jct.2015.07.014).
± gives the expanded uncertainty stated by the source.

Experiment: xn = mol fraction of the nth substance listed
Conditions: Fluid (supercritical or subcritical phases), Buoyancy - hydrostatic balance with magnetic suspension - one sinker

[Ar] [argon] + O=C=O
Conditions	mass density [kg/m3]
298.12 K, 30871 kPa, x1 = 0.99	502.471 ± 0.67
298.17 K, 30944 kPa, x1 = 0.95	514.698 ± 0.69
298.18 K, 28957 kPa, x1 = 0.99	476.725 ± 0.65
298.19 K, 10975 kPa, x1 = 0.99	187.045 ± 0.25
298.19 K, 12973 kPa, x1 = 0.99	222.038 ± 0.29
298.19 K, 14969 kPa, x1 = 0.99	256.759 ± 0.34
298.19 K, 16969 kPa, x1 = 0.99	291.075 ± 0.39
298.19 K, 18969 kPa, x1 = 0.99	324.674 ± 0.44
298.19 K, 26962 kPa, x1 = 0.99	448.747 ± 0.61
298.2 K, 20967 kPa, x1 = 0.99	357.351 ± 0.49
298.2 K, 22966 kPa, x1 = 0.99	389.003 ± 0.53
298.2 K, 24964 kPa, x1 = 0.99	419.491 ± 0.57
298.22 K, 10976 kPa, x1 = 0.95	190.182 ± 0.25
298.23 K, 12976 kPa, x1 = 0.95	226.201 ± 0.3
298.23 K, 14974 kPa, x1 = 0.95	261.987 ± 0.35
298.23 K, 16969 kPa, x1 = 0.95	297.274 ± 0.4
298.23 K, 18970 kPa, x1 = 0.95	331.923 ± 0.44
298.23 K, 20969 kPa, x1 = 0.95	365.576 ± 0.49
298.23 K, 22968 kPa, x1 = 0.95	398.09 ± 0.53
298.23 K, 24967 kPa, x1 = 0.95	429.349 ± 0.57
298.23 K, 26965 kPa, x1 = 0.95	459.226 ± 0.61
298.23 K, 28963 kPa, x1 = 0.95	487.701 ± 0.65
323.2 K, 10978 kPa, x1 = 0.99	168.714 ± 0.21
323.2 K, 24965 kPa, x1 = 0.99	375.34 ± 0.48
323.2 K, 30955 kPa, x1 = 0.99	452.317 ± 0.57
323.21 K, 14970 kPa, x1 = 0.99	230.302 ± 0.29
323.21 K, 16971 kPa, x1 = 0.99	260.652 ± 0.33
323.21 K, 18969 kPa, x1 = 0.99	290.39 ± 0.37
323.21 K, 20969 kPa, x1 = 0.99	319.49 ± 0.41
323.21 K, 22966 kPa, x1 = 0.99	347.807 ± 0.44
323.21 K, 26962 kPa, x1 = 0.99	401.924 ± 0.51
323.21 K, 28960 kPa, x1 = 0.99	427.589 ± 0.55
323.22 K, 12973 kPa, x1 = 0.99	199.627 ± 0.25
323.24 K, 24968 kPa, x1 = 0.95	382.594 ± 0.52
323.24 K, 30958 kPa, x1 = 0.95	460.997 ± 0.64
323.25 K, 16970 kPa, x1 = 0.95	265.1 ± 0.36
323.25 K, 22969 kPa, x1 = 0.95	354.46 ± 0.48
323.25 K, 28963 kPa, x1 = 0.95	435.856 ± 0.59
323.26 K, 10976 kPa, x1 = 0.95	170.993 ± 0.23
323.26 K, 12974 kPa, x1 = 0.95	202.641 ± 0.27
323.26 K, 14973 kPa, x1 = 0.95	234.077 ± 0.32
323.27 K, 18969 kPa, x1 = 0.95	295.579 ± 0.4
323.27 K, 20973 kPa, x1 = 0.95	325.456 ± 0.44
323.27 K, 26965 kPa, x1 = 0.95	409.68 ± 0.56
348.21 K, 14972 kPa, x1 = 0.99	209.619 ± 0.26
348.21 K, 16970 kPa, x1 = 0.99	236.897 ± 0.3
348.21 K, 18972 kPa, x1 = 0.99	263.764 ± 0.33
348.22 K, 20972 kPa, x1 = 0.99	290.057 ± 0.36
348.22 K, 30956 kPa, x1 = 0.99	411.615 ± 0.51
348.23 K, 28960 kPa, x1 = 0.99	388.704 ± 0.49
348.24 K, 26963 kPa, x1 = 0.99	365.062 ± 0.46
348.25 K, 10977 kPa, x1 = 0.99	154.064 ± 0.19
348.25 K, 12974 kPa, x1 = 0.99	181.967 ± 0.23
348.25 K, 24966 kPa, x1 = 0.99	340.708 ± 0.43
348.25 K, 30958 kPa, x1 = 0.95	418.385 ± 0.56
348.26 K, 22968 kPa, x1 = 0.99	315.675 ± 0.4
348.28 K, 18972 kPa, x1 = 0.95	267.685 ± 0.35
348.28 K, 20972 kPa, x1 = 0.95	294.53 ± 0.39
348.28 K, 28962 kPa, x1 = 0.95	395.094 ± 0.52
348.29 K, 22970 kPa, x1 = 0.95	320.729 ± 0.42
348.29 K, 26966 kPa, x1 = 0.95	371.043 ± 0.49
348.3 K, 10979 kPa, x1 = 0.95	155.9 ± 0.21
348.3 K, 12976 kPa, x1 = 0.95	184.3 ± 0.24
348.3 K, 14972 kPa, x1 = 0.95	212.437 ± 0.28
348.3 K, 16971 kPa, x1 = 0.95	240.266 ± 0.31
348.31 K, 24969 kPa, x1 = 0.95	346.237 ± 0.46
373.22 K, 16970 kPa, x1 = 0.99	217.712 ± 0.27
373.22 K, 18968 kPa, x1 = 0.99	242.204 ± 0.3
373.22 K, 30957 kPa, x1 = 0.99	378.472 ± 0.47
373.23 K, 22970 kPa, x1 = 0.99	289.853 ± 0.36
373.23 K, 24965 kPa, x1 = 0.99	312.835 ± 0.39
373.23 K, 26964 kPa, x1 = 0.99	335.305 ± 0.42
373.24 K, 10977 kPa, x1 = 0.95	143.58 ± 0.19
373.24 K, 14972 kPa, x1 = 0.99	192.822 ± 0.24
373.24 K, 20969 kPa, x1 = 0.99	266.255 ± 0.33
373.24 K, 28960 kPa, x1 = 0.99	357.169 ± 0.45
373.25 K, 10978 kPa, x1 = 0.99	142.11 ± 0.18
373.25 K, 12977 kPa, x1 = 0.99	167.627 ± 0.21
373.28 K, 18969 kPa, x1 = 0.95	245.312 ± 0.32
373.29 K, 16972 kPa, x1 = 0.95	220.418 ± 0.28
373.29 K, 28963 kPa, x1 = 0.95	362.242 ± 0.47
373.29 K, 30959 kPa, x1 = 0.95	383.847 ± 0.5
373.3 K, 12975 kPa, x1 = 0.95	169.447 ± 0.22
373.31 K, 14971 kPa, x1 = 0.95	195.043 ± 0.25
373.31 K, 20969 kPa, x1 = 0.95	269.779 ± 0.35
373.31 K, 26966 kPa, x1 = 0.95	340.003 ± 0.44
373.32 K, 22966 kPa, x1 = 0.95	293.716 ± 0.38
373.32 K, 24968 kPa, x1 = 0.95	317.167 ± 0.41
398.26 K, 12977 kPa, x1 = 0.99	155.613 ± 0.2
398.28 K, 10979 kPa, x1 = 0.99	132.065 ± 0.17
398.28 K, 20968 kPa, x1 = 0.99	246.59 ± 0.31
398.28 K, 30957 kPa, x1 = 0.99	350.842 ± 0.43
398.29 K, 26962 kPa, x1 = 0.99	310.557 ± 0.39
398.29 K, 28962 kPa, x1 = 0.99	330.96 ± 0.41
398.3 K, 14970 kPa, x1 = 0.99	178.803 ± 0.22
398.3 K, 18971 kPa, x1 = 0.99	224.388 ± 0.28
398.3 K, 22969 kPa, x1 = 0.99	268.392 ± 0.33
398.3 K, 24967 kPa, x1 = 0.99	289.714 ± 0.36
398.31 K, 16969 kPa, x1 = 0.99	201.75 ± 0.25
398.31 K, 26966 kPa, x1 = 0.95	314.455 ± 0.4
398.31 K, 28963 kPa, x1 = 0.95	335.112 ± 0.42
398.33 K, 14977 kPa, x1 = 0.95	180.735 ± 0.23
398.33 K, 24965 kPa, x1 = 0.95	293.233 ± 0.37
398.33 K, 30959 kPa, x1 = 0.95	355.238 ± 0.46
398.34 K, 22971 kPa, x1 = 0.95	271.617 ± 0.34
398.35 K, 18973 kPa, x1 = 0.95	226.932 ± 0.29
398.35 K, 20972 kPa, x1 = 0.95	249.488 ± 0.32
398.36 K, 12973 kPa, x1 = 0.95	157.068 ± 0.2
398.36 K, 16970 kPa, x1 = 0.95	203.95 ± 0.26
398.37 K, 10980 kPa, x1 = 0.95	133.275 ± 0.17
423.22 K, 10980 kPa, x1 = 0.99	123.515 ± 0.16
423.22 K, 16967 kPa, x1 = 0.99	188.325 ± 0.24
423.23 K, 14969 kPa, x1 = 0.99	166.982 ± 0.21
423.24 K, 12971 kPa, x1 = 0.99	145.339 ± 0.18
423.28 K, 18967 kPa, x1 = 0.99	209.329 ± 0.26
423.3 K, 20973 kPa, x1 = 0.99	230.071 ± 0.29
423.3 K, 22965 kPa, x1 = 0.99	250.298 ± 0.31
423.3 K, 30956 kPa, x1 = 0.99	327.48 ± 0.41
423.31 K, 12974 kPa, x1 = 0.95	146.65 ± 0.18
423.32 K, 24968 kPa, x1 = 0.95	273.195 ± 0.34
423.33 K, 10981 kPa, x1 = 0.95	124.535 ± 0.16
423.33 K, 14975 kPa, x1 = 0.95	168.571 ± 0.21
423.33 K, 24964 kPa, x1 = 0.99	270.201 ± 0.34
423.33 K, 26968 kPa, x1 = 0.95	292.962 ± 0.36
423.33 K, 28959 kPa, x1 = 0.99	308.785 ± 0.39
423.34 K, 18970 kPa, x1 = 0.95	211.466 ± 0.26
423.34 K, 26961 kPa, x1 = 0.99	289.685 ± 0.36
423.34 K, 28966 kPa, x1 = 0.95	312.296 ± 0.39
423.35 K, 16970 kPa, x1 = 0.95	190.146 ± 0.24
423.35 K, 20971 kPa, x1 = 0.95	232.422 ± 0.29
423.35 K, 30960 kPa, x1 = 0.95	331.165 ± 0.41
423.36 K, 22968 kPa, x1 = 0.95	252.983 ± 0.32
